Assay results as given in paper PMC11375437, “Selective labelling of GBA2 in cells with fluorescent β-D-arabinofuranosyl cyclitol aziridines” (Chemical Science, 2024).

Biological target: T1, GBA2 (Homo sapiens, UniProt Q9HCG7)
T1 sequence (Q9HCG7 1-927): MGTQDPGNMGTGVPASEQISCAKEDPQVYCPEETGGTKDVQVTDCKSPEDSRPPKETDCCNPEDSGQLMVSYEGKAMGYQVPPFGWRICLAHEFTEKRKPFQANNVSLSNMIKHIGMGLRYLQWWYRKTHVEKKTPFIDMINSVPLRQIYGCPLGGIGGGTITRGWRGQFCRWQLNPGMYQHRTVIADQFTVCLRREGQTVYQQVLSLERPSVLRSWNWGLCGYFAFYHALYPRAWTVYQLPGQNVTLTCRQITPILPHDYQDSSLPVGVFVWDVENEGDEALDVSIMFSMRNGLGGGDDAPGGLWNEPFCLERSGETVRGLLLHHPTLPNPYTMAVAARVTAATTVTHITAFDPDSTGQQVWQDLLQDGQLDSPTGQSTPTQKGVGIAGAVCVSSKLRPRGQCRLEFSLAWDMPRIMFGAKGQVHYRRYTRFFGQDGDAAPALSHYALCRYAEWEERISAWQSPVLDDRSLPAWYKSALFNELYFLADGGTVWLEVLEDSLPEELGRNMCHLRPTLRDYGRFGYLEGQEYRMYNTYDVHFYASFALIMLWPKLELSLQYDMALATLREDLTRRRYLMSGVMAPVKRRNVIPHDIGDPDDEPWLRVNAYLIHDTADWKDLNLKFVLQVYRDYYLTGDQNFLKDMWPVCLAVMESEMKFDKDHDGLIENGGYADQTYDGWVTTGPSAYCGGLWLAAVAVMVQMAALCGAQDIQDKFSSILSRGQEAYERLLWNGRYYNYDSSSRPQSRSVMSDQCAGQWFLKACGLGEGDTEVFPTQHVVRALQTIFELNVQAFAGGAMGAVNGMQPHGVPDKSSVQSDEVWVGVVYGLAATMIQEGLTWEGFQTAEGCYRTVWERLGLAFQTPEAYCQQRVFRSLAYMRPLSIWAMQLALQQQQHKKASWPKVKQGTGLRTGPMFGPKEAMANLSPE
Test: In vitro ABP labelling of HEK293T lysates (ABPP, SDS-PAGE fluorescence scanning)
Format: biochemical
Set-up: expressed in transfected cells; host or cells: HEK293T GBA1/GBA2 KO (CRISPR/Cas9), GBA2 overexpressed
Conditions: for Concentration at which GBA2 is selectively labelled: 30 min, pH 6.0
Description: To this end, lysates of HEK293T cells containing all β-glucosidases (endogenous GBA1 with overexpressed GBA2 and GBA3) were treated with ABPs 3, 4, 5 or 7, followed by protein separation by SDS-PAGE and fluorescence scanning of the wet gel slabs. […] In contrast, the β-D-Araf aziridine ABPs 3 and 4 selectively labelled GBA2 at a concentration of 100 nM, while Cy5 tagged ABP 5 did so at 500 nM. The GBA2 selectivity of β-D-Araf cyclitol aziridines 3, 4 and 5 was confirmed in a mixture of a lysate of overexpressed GBA2 cells spiked with 3 ng rhGBA1 (Fig. 2C and ESI Fig. S3 ^†). In this experiment, the enzyme mixture was first incubated with β-D-Araf aziridine ABPs 3, 4, or 5 for 30 minutes, after which selective GBA1 ABP 10 [32] or 11 [30] was added to label the remaining active rhGBA1 active site. […] The pH and incubation time dependence labelling of GBA2 in HEK293T cells containing all three retaining β-glucosidases by β-D-Araf ABPs was next investigated (Fig. 2D, E and ESI Fig. S4 ^†). All ABPs selectively label GBA2 at a pH range of 4.5–7.5. Using 500 nM of ABP 4, GBA2 labelling occurred within a minute, and maximal labelling was observed after 20–30 minutes. […] Therefore, only a combined inactivation rate constant (kinact) and binding constant (KI) ratio (kinact/KI) could be measured. […] Importantly, no labelling of GBA1 or GBA3 was detected under varying pH and time conditions (ESI Fig. S4-2 ^†). […]
2.6 Visualization of ABP labelling towards β-glucosidases by activity-based protein profiling (ABPP) with SDS-PAGE
β-Glucosidases were labeled with excess of fluorescent ABPs at optimum conditions at 37 °C for 30 min (if not otherwise stated). The total sample volume was 20–40 μL with 0.5–1% DMSO concentration in appropriate pH McIlvaine buffer (150 mM). To label lysates containing all β-glucosidases (GBA1, GBA2 and GBA3), ABP 7 was used at pH 6.0 in McIlvaine buffer. To label lysate only containing GBA2 (GBA1/2 KO and GBA2 OE cell lysate), ABP (3-5, or 7) was incubated at pH 5.8 in McIlvaine buffer was used. To label rhGBA1 (Imiglucerase), ABP (10 or 11) at pH 5.2 in McIlvaine buffer supplemented with 0.1% (v/v) Triton X-100 and 0.2% (w/v) sodium taurocholate were used.
After incubation with the corresponding ABPs, proteins were denatured by boiling the samples with 5× Laemmli buffer (50% (v/v) 1 M Tris-HCl, pH 6.8, 50% (v/v) 100% glycerol, 10% (w/v) DTT, 10% (w/v) SDS, 0.01% (w/v) bromophenol blue, diluted into 1x for use) for 5 min at 98 °C, and separated by electrophoresis on 10% SDS-PAGE gels run at 90 V for 1.0-1.5 h. Wet slab-gels were imaged using the Typhoon FLA 9500 scanner (GE Healthcare, Eindhoven, The Netherlands) at λEX 473 nm and λEM ≥ 510 nm for BODIPY green fluorescence; at λEX 532 nm and λEM ≥ 575 nm for the BODIPY red fluorescence ; at λEX 635 nm and λEM ≥ 665 nm for Cy5 fluorescence. Afterwards, wet slab-gels were stained by Coomassie brilliant blue (CBB) G250 or R250 for total protein staining and scanned with a ChemiDocTM MP Imaging System (Bio-Rad, Veenendaal, The Netherlands).
2.7 Determination of kinetic parameters of ABP 4
The kinetic parameters of ABP 4 for GBA2 was determined by SDS-PAGE analysis in lysates of HEK293T GBA1/2 knock out GBA2 overexpression cells in which the relative intensity of the band on wet gel slabs (compared to labelling control) was used to calculate the inactivation parameters of GBA2. Lysates were made as previous cell lysis description. […]

[1] = HEK293T lysate, endogenous GBA1, overexpressed GBA2 and GBA3

SMILES | Concentration at which GBA2 is selectively labelled [1] | Time to maximal GBA2 labelling (500 nM ABP, HEK293T lysate containing all three β-glucosidases) | β-Glucosidases labelled in lysate [1]
CC1=CC(C)=[N+]2C1=C(CCCCc1cn(CCCCCCCCN3[C@@H]4[C@H](CO)[C@@H](O)[C@H](O)[C@@H]43)nn1)c1c(C)cc(C)n1[B-]2(F)F (some centres unmarked) [ABP 3] | 100 nM | – | –
COc1ccc(C2=[N+]3C(=C(CCCCc4cn(CCCCCCCCN5[C@@H]6[C@H](CO)[C@@H](O)[C@H](O)[C@@H]65)nn4)c4ccc(-c5ccc(OC)cc5)n4[B-]3(F)F)C=C2)cc1 (some centres unmarked) [ABP 4] | 100 nM | 20 to 30 min | –
CN1/C(=C/C=C/C=C/C2=[N+](CCCCCC(=O)NCc3cn(CCCCCCCCN4[C@@H]5[C@H](CO)[C@@H](O)[C@H](O)[C@@H]54)nn3)c3ccccc3C2(C)C)C(C)(C)c2ccccc21 (some centres unmarked) [ABP 5] | 500 nM | – | –
CN1/C(=C/C=C/C=C/C2=[N+](CCCCCC(=O)NCc3cn(CCCCCCCCN4[C@@H]5[C@H](CO)[C@@H](O)[C@H](O)[C@@H](O)[C@@H]54)nn3)c3ccccc3C2(C)C)C(C)(C)c2ccccc21 (some centres unmarked) [ABP 7] | – | – | labelled all three β-glucosidases
